In ChEMBL document CHEMBL1681692, “Identification of new GATA4-small molecule inhibitors by structure-based virtual screening” (Bioorg Med Chem, 2011):
Active and inactive are the calls of the source. The rule behind the calls is not given here.

Legend:
[1] = molecular target: Transcription factor GATA-4 (Mus musculus) (UniProt Q08369); assay: Inhibition of GATA4 in mouse C2C12 cells assessed as myoblast differentiation to myotubes at 100 uM after 48 hrs by immunofluorescence assay in presence of 20 % FBS relative to control; type: cell-based
[2] = molecular target: Transcription factor GATA-4 (Homo sapiens) (UniProt P43694); assay: Inhibition of GATA4-DNA interaction in HEK293 nuclear extract at 150 uM after 15 mins by EMSA assay; type: cell-free
[3] = molecular target: Transcription factor GATA-4 (Mus musculus) (UniProt Q08369); assay: Inhibition of GATA4- DNA interaction in mouse C2C12 cells at 100 uM after 24 hrs by EMSA assay; type: cell-based
[4] = Lipophilicity, log P of compound; type: physicochemical; details: octanol/water
[5] = molecular target: Transcription factor GATA-4 (Homo sapiens) (UniProt P43694); assay: Inhibition of GATA4-DNA interaction in HEK293 nuclear extract at 50 to 150 uM after 15 mins by EMSA assay
[6] = molecular target: Transcription factor GATA-4 (Mus musculus) (UniProt Q08369); assay: Inhibition of GATA4 in mouse C2C12 cells assessed as myoblast differentiation to myotubes at 100 uM after 48 hrs by immunofluorescence assay in presence of 0.5% FBS relative to control; type: cell-based
[7] = molecular target: Transcription factor GATA-4 (Homo sapiens) (UniProt P43694); assay: Inhibition of GATA4-DNA interaction in HEK293 nuclear extract at 50 uM after 15 mins by EMSA assay; type: cell-free
[8] = test system: C2C12; assay: Cytotoxicity in mouse C2C12 cells assessed as effect on cell proliferation upto 150 uM; type: cell-based
[9] = test system: HeLa; assay: Cytotoxicity in human HeLa cells assessed as cell death upto 150 uM; type: cell-based
[10] = molecular target: T1, T-box transcription factor TBX5 (Homo sapiens) (UniProt Q99593); assay: Effect on Tbx5 in HEK293 nuclear extract at 50 uM after 15 mins by EMSA assay
T1 sequence (whole entry): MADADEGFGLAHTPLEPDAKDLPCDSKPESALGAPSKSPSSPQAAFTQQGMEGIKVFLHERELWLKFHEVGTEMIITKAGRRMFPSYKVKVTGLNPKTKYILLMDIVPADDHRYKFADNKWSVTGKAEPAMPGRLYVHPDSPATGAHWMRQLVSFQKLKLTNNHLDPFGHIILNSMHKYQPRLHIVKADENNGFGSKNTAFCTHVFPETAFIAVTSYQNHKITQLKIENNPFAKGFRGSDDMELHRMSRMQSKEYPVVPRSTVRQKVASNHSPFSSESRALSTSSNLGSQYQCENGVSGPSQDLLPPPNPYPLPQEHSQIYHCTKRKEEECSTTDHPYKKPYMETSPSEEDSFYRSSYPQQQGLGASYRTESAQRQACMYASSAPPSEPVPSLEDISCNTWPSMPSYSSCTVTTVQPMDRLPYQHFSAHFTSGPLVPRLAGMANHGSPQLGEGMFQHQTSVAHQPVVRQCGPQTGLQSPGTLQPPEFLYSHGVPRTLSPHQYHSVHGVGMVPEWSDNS

[11] = test system: HEK293; assay: Cytotoxicity in human HEK293 cells assessed as effect on cell proliferation upto 150 uM; type: cell-based
[12] = molecular target: Transcription factor GATA-4 (Homo sapiens) (UniProt P43694); assay: Inhibition of GATA4-DNA interaction in HEK293 nuclear extract at 100 uM after 15 mins by EMSA assay; type: cell-free
[13] = test system: HeLa; assay: Cytotoxicity in human HeLa cells assessed as effect on cell proliferation upto 150 uM; type: cell-based
[14] = test system: C2C12; assay: Cytotoxicity in mouse C2C12 cells assessed as cell death upto 150 uM; type: cell-based
[15] = molecular target: Transcription factor GATA-4 (Homo sapiens) (UniProt P43694); assay: Inhibition of GATA4- mediated BNP promoter activation in HeLa cells at 100 uM after 24 hrs by luciferase reporter gene assay; type: cell-based
[16] = test system: HeLa; assay: Drug uptake in human HeLa cells after 24 hrs; type: ADME, cell-based
[17] = molecular target: T2, Nuclear factor of activated T-cells, cytoplasmic 1 (Homo sapiens) (UniProt O95644); assay: Effect on NFATc1 in HEK293 nuclear extract at 50 uM after 15 mins by EMSA assay
T2 sequence (whole entry): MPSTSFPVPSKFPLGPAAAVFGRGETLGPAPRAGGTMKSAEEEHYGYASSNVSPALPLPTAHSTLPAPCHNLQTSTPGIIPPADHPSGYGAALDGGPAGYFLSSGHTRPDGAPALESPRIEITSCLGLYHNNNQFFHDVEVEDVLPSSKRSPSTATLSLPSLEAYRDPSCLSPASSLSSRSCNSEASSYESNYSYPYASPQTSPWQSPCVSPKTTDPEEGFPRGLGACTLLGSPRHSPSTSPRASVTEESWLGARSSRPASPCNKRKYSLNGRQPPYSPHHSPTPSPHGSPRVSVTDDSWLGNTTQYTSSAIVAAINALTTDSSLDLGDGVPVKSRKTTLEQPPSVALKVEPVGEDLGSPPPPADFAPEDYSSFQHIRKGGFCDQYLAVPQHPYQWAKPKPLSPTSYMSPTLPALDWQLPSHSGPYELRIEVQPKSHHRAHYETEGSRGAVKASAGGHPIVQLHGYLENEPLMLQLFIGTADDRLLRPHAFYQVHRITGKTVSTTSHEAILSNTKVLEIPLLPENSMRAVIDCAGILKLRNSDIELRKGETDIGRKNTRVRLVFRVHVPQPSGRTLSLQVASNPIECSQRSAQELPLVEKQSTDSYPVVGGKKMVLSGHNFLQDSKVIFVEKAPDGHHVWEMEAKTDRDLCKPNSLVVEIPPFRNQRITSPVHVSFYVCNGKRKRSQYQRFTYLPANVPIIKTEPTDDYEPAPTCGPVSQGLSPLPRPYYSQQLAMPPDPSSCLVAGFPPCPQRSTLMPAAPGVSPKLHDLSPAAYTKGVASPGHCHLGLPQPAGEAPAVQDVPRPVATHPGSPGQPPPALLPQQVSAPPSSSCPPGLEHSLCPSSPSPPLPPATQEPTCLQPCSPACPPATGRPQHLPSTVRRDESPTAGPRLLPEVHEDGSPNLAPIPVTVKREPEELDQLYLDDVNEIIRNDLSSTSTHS

[18] = test system: HEK293; assay: Cytotoxicity in human HEK293 cells assessed as cell death upto 150 uM; type: cell-based

Chain of Transcription factor GATA-4 (Homo sapiens) (P43694 whole entry): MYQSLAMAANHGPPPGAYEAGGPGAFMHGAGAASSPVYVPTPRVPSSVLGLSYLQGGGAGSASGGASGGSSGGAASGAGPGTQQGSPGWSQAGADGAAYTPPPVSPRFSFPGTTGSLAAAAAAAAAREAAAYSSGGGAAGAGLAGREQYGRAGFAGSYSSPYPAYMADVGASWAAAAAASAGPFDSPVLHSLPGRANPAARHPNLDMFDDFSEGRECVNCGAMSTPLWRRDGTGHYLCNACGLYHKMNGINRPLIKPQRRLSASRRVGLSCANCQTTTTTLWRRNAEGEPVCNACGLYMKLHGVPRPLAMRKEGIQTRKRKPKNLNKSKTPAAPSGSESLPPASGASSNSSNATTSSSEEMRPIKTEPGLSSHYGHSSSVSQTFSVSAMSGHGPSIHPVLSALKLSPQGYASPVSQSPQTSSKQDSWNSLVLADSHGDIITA
Chain of Transcription factor GATA-4 (Mus musculus) (Q08369 whole entry): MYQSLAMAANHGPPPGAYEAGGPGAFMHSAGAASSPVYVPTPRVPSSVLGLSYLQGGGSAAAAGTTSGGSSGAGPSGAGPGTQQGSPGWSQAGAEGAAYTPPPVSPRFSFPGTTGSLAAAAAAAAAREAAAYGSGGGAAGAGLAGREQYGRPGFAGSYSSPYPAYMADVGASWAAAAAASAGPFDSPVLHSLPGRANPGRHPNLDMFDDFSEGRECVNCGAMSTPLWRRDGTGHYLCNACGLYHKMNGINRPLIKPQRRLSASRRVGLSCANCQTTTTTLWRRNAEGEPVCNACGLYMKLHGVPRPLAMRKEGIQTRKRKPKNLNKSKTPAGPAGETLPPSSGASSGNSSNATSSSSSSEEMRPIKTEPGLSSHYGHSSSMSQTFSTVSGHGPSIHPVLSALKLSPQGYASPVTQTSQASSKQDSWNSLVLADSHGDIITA

inhibition [1] | inhibition [2] [%] | inhibition [3] | logP [4] | inhibition [5] | inhibition [6] | inhibition [7] | Activity [10] | inhibition [12] | inhibition [15] | Drug uptake [16] | Activity [17] | SMILES | Activity [8] | Activity [9] | Activity [11] | Activity [13] | Activity [14] | Activity [18]
inactive | 70 | Active | < 0 | Dose-dependent effect | inactive | Active | inactive | Active | 35% | Active | inactive | Cc1cc(C(=O)O)c(C(=O)O)c(O)n1 | Non-toxic | Non-toxic | Non-toxic | Non-toxic | Non-toxic | Non-toxic
Active | 70 | Active | < 0 | Dose-dependent effect | Active | Active | inactive | Active | inactive | Not Active | inactive | O=C(O)c1cc(C(=O)O)cc(S(=O)(=O)NCCO)c1 | Non-toxic | Non-toxic | Non-toxic | Non-toxic | Non-toxic | Non-toxic
inactive | 70 | Active | < 0 | Dose-dependent effect | inactive | Active | inactive | Active | 16% | Active | inactive | NC(=O)c1ncn([C@@H]2O[C@H](COP(=O)(O)O)[C@@H](O)[C@H]2O)n1 [RIBAVIRIN MONOPHOSPHATE] | Non-toxic | Non-toxic | Non-toxic | Non-toxic | Non-toxic | Non-toxic
Active |  | Active | < 0 | Dose-dependent effect | Active | 60% | inactive | Active | 35% | Active | inactive | O=C(O)CC(Cc1ccc2c(c1)OCO2)C(=O)O (stereo unspecified) | Non-toxic | Non-toxic | Non-toxic | Non-toxic | Non-toxic | Non-toxic
